Laboratory results published in patent US9938335B2, “Glucagon and GLP-1 co-agonist compounds” (Eli Lilly and Company, priority 2015, dated 2018).
Values after ≈ are worked out from the molar mass of the structure shown. Where two headings read alike, the source gives them in different places. Marks after values point to notes of the source that are not given here. Starred links: 1 amine or outer side, 2 acyl side, 3 side chain; linkers in the order of their positions; H or OH if unused. Non-standard residues stand in square brackets, D forms with d. Residues, ends and D or L forms follow the SMILES beside them. Groups on a side chain read outwards from the residue. *: point of attachment. C20 diacid = O=C(O)CCCCCCCCCCCCCCCCCCC(=O)*; γGlu = O=C(O)[C@H](CCC(=O)[*:2])N[*:1]; AEEA = NCCOCCOCC(=O)O; Aib = CC(C)(N)C(=O)O

Tests used:
[1] = test system: DIO mice (C57BL/6); experiment: Chronic treatment in DIO mice (body weight, fat, food intake); assay type: in vivo, mouse
Description: The effects on food intake and body weight/fat are evaluated in DIO mice. Five to six months old DIO mice (C57BL/6) from Taconic Biosciences are used in this study. Animals are individually housed in a temperature-controlled (24° C.) facility with a 12 hour light/dark cycle (lights on 6:00), and free access to food and water. The mice are acclimated to the facility for two weeks. The day before the study start, fat mass is measured by nuclear magnetic resonance (NMR) using an Echo Medical System (Houston, Tex.) instrument. The mice are randomized to treatment groups (N=7/group) based on body weight and fat mass so each group had similar starting mean body weight and fat mass. […] SC injections are made on Day 1, 4, 7, 10, and 13. Body weight and food intake are measured right before each injection throughout the study. Percent changes in body weight are calculated as follows: […]
At the completion of the study, total fat mass is measured again by NMR. Statistics are analyzed using ANOVA with Dunnett's comparison by JMP 6. Significance is denoted at p≤0.05 vs. vehicle.

[2] = target: T1, hGLP-1-R (Homo sapiens, UniProt P43220); experiment: hGLP-1R Binding Assay (SPA radioligand competition, 293HEK membranes); parameters: expressed in transfected cells; host or cells: 293HEK, stably transfected with plasmid phD, Hygromycin-selected; crude plasma membranes; settings: read-out: Ki, nM ± SEM at the hGLP-1-R
[3] = target: T2, Human Gcg-R (Homo sapiens, UniProt P47871); experiment: Functional hGcg-R assay (cAMP HTRF, HEK-293 clonal cell line); assay type: cell-based
T2 construct: expressed in transfected cells; host or cells: HEK-293 clonal cell line over-expressing the receptor
Description: (§1) After a 60 minute incubation at room temperature, the resulting increase in intracellular cAMP (adenosine 3′,5′-cyclic monophosphate) is quantitatively determined using the CisBio cAMP Dynamic 2 HTRF Assay Kit (62AM4PEJ). cAMP levels within the cell are detected by adding the cAMP-d2 conjugate in cell lysis buffer (20 μl) followed by the antibody anti-cAMP-Eu^3+-Cryptate, also in cell lysis buffer (20 μl).
(§2) A relative EC50 value and percent top (Emax) are derived by non-linear regression analysis using the percent maximal response vs. the concentration of peptide added, fitted to a four-parameter logistic equation (Genedata Screener®).
(§3) Means for EC50 are expressed as Geometric means±standard error of the mean (SEM) with the number of replicates (n) indicated in parenthesis. Means for Emax are expressed as the arithmetic mean±standard error. ND signifies that agonist activity was not detected.

[4] = target: T1, hGLP-1-R; experiment: Functional hGLP-1-R assay (cAMP HTRF, HEK-293 clonal cell line); assay type: cell-based; parameters: expressed in transfected cells; host or cells: HEK-293 clonal cell line over-expressing the receptor
Description: as §1, §2, §3

[5] = target: hGcg-R (Homo sapiens, UniProt P47871); experiment: hGcg-R Binding Assay (SPA radioligand competition, 293HEK membranes); settings: read-out: Ki, nM ± SEM at the hGcg-R
[6] = Viscosity (Rheosense mVroc Viscometer); assay type: physicochemical; settings: approximately 10 mg/mL peptide in 10 mM Tris + 3 mg/mL m-cresol at pH 8.0; 25° C.; shear rate 1934 s^−1
Description: Viscosity of compounds of the present invention is measured in a Rheosense mVroc Viscometer with the following settings:
(a) Syringe size: 500 μL syringe
(b) Flow Rate: 100 μL/min flow rate
(c) Average Temperature: 25° C.
(d) Shear Rate: 1934 s^−1
Dry powder (compound) is weighed out, dissolved in water as a cloudy precipitate, and titrated to approximately pH 8.0 with 1N NaOH. The solution is sonicated and swirled by hand until peptide is in solution. Samples are sterile filtered (0.22 μm PVDF filters). Samples are then analyzed by UV-Vis to assess stock solution concentrations. Solutions are diluted to final concentration using 3× m-cresol in 10 mM Tris pH 8.0 buffer to final concentrations of approximately 10 mg/mL peptide by weight in 10 mM Tris+3 mg/mL m-cresol at pH 8.0. Samples were filtered through 0.22 μm filters immediately prior to viscosity analysis. 25 μL of sample are removed to verify concentration by RP-HPLC before and after analysis.
Water and buffer control samples are measured before and after each sample is analyzed. The instrument is washed with buffer (3×) in between analysis of each sample. The samples are loaded into individual syringes and analyzed. The first measurement is not included in the final calculation to allow for equilibration with the system. Samples are then analyzed in triplicate (n=3).
The viscosity of Compounds 1-4 was measured essentially as described in this assay.

[7] = test system: DIO mice (C57BL/6); experiment: Glycemic control in DIO mice; assay type: in vivo, mouse; settings: for Blood glucose (mg/dL) post-injection, Mean: male DIO mice, 25 nmol/kg sc once
Description: Five to six months old male DIO mice (C57BL/6) from Taconic Biosciences are used in this study. Animals are individually housed in a temperature-controlled (24° C.) facility with a 12 hour light/dark cycle (lights on 6:00), and free access to food and water. After two weeks acclimation to the facility, the mice are randomized to treatment groups (n=7/group) based on their body weight and blood glucose. Mice are injected subcutaneously once with vehicle or compounds (25 nmol/kg). Blood glucose is monitored 2 and 8 hours post-injection and then once a day at 08:00 for 4 days. OGTTs are performed at 44 and 78 hours post the peptide injection. Statistics are analyzed using ANOVA with Dunnett's comparison by JMP 6. Significance is denoted at p≤0.05 vs vehicle.

[8] = Solubility (RP-HPLC and HPLC-SEC, 1 week at 4° C.); assay type: physicochemical
Description: Solubility of compounds of the present invention is measured in an Agilent 1100 HPLC, an Agilent 1200 HPLC and a Nanodrop 2000. The following HPLC columns are used:
(a) RP-HPLC: Waters Symmetry Shield C18, 3.6 um, 4.6×100 mm
(b) HPLC-SEC: Tosoh Biosciences, TSK2000SWXL […]
All peptide concentrations are made at 10 mg/mL in the following:
(a) 10 mM Tris pH 8.0+3 mg/mL m-cresol
(b) 10 mM Tris pH 8.0+3 mg/mL m-cresol+150 mM NaCl
(c) 10 mM Tris pH 8.0+3 mg/mL m-cresol+0.02% Tween-20
5 mL of 10 mg/mL peptide dissolved in 10 mM Tris at pH 8.0 is concentrated to approximately 20 mg/mL using Amicon-ultra 3 kDa MWCO devices. The solution is filtered using Millivex 0.22 μM filters (PVDF membrane) and the final concentration is measured by the NanoDrop spectrometer. This stock solution is used to formulate to the final conditions stated above using 3× m-cresol, 10× NaCl, and 100× Tween-20 stock solutions. A 10 mg/mL PBS solution is also prepared by dissolving directly at 5 mg/mL and concentrating using Amicon-ultra 3 kDa MWCO devices.
Each solution is placed in a refrigerator at 4° C. for 1 week, with analysis by RP-HPLC to assess concentration and HPLC-SEC to assess HMW species formation. Analyses completed at T-0 week and T-1 week.
The solubility of Compounds 1-4 was measured essentially as described in this assay.

[9] = 15 nmol/kg sc every three days for 15 days
[10] = 30 nmol/kg sc every three days for 15 days

T1 sequence (P43220 24-463): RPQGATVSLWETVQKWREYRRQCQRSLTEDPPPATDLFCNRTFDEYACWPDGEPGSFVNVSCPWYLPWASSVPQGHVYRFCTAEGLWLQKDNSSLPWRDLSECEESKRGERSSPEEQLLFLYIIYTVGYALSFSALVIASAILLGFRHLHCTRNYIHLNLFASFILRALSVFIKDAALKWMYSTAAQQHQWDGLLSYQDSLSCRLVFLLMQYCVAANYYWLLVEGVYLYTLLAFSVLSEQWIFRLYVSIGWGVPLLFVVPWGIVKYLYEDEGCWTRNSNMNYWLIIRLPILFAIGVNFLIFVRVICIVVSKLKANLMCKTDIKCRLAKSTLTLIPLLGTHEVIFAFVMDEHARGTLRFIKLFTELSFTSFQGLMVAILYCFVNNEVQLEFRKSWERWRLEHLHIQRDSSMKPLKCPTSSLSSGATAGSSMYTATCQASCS
T2 sequence (P47871 26-477): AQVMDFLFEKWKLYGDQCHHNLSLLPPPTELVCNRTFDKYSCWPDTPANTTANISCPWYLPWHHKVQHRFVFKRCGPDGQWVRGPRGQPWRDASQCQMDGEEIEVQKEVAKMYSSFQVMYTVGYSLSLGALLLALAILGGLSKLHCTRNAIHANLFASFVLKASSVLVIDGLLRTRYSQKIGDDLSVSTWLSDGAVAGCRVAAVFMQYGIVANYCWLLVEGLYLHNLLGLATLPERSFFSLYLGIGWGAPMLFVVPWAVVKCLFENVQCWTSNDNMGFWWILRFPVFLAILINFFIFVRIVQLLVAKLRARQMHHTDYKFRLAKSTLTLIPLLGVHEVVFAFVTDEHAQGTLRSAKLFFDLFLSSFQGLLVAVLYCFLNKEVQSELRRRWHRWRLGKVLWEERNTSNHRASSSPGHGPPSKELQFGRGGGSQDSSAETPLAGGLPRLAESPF
Chain of hGcg-R (P47871 26-477): as above

Ki [2]: 20.2 ± 8.2 nM
Emax ([3]; HEK293): 116 ± 4%
EC50 ([3]; cAMP, 60 minute incubation, 0.25% FBS, 0.05% BSA, geometric mean, read-out: Human Gcg-R EC50, nM ± SEM, (n)): 68.8 ± 7.2 nM
Emax ([4]; HEK293): 85.2 ± 6%
EC50 ([4]; cAMP, 60 minute incubation, 0.25% FBS, 0.05% BSA, geometric mean, read-out: Human GLP-1-R EC50, nM ± SEM (n)): 106 ± 18 nM
Ki [5]: 27.4 ± 3.3 nM
500 μL syringe Viscosity [6]: 1.05 cP or mPa-s
solubility at 1 week ([8]; 10 mM Tris pH 8.0 + 3 mg/mL m-cresol + 0.02% Tween-20, Tris pH 8 + 3 mg/mL m-cresol + 0.02% Tween-20): 10000 µg/mL
solubility at 1 week ([8]; 10 mM Tris pH 8.0 + 3 mg/mL m-cresol + 150 mM NaCl, Tris pH 8 + 3 mg/mL m-cresol + 150 mm NaCl): 10000 µg/mL
solubility at 1 week ([8]; 10 mM Tris pH 8.0 + 3 mg/mL m-cresol, Tris pH 8 + 3 mg/mL m-cresol): 10000 µg/mL
solubility at 1 week ([8]; PBS pH 7.4, pH 7.4, read-out: solubility in PBS, pH 7.4): 10000 µg/mL (≈ 2150 µM)
Structure (SMILES): CC(C)C[C@H](NC(=O)[C@H](CC(C)C)NC(=O)[C@H](Cc1c[nH]c2ccccc12)NC(=O)[C@H](CCC(=O)O)NC(=O)[C@@H](NC(=O)[C@H](Cc1ccccc1)NC(=O)[C@H](CCC(=O)O)NC(=O)[C@H](CCCCNC(=O)COCCOCCNC(=O)COCCOCCNC(=O)CC[C@H](NC(=O)CC[C@H](NC(=O)CCCCCCCCCCCCCCCCCCC(=O)O)C(=O)O)C(=O)O)NC(=O)[C@H](C)NC(=O)[C@H](CCCCN)NC(=O)[C@H](CCCCN)NC(=O)[C@H](CCC(=O)O)NC(=O)[C@H](CC(=O)O)NC(=O)[C@H](CC(C)C)NC(=O)[C@H](Cc1ccc(O)cc1)NC(=O)[C@H](CCCCN)NC(=O)[C@H](CO)NC(=O)[C@H](Cc1ccc(O)cc1)NC(=O)[C@H](CC(=O)O)NC(=O)[C@H](CO)NC(=O)[C@@H](NC(=O)[C@H](Cc1ccccc1)NC(=O)[C@@H](NC(=O)CNC(=O)[C@H](CCC(N)=O)NC(=O)C(C)(C)NC(=O)[C@@H](N)Cc1c[nH]cn1)[C@@H](C)O)[C@@H](C)O)C(C)C)C(=O)N[C@@H](CO)C(=O)NCC(=O)NCC(=O)N1CCC[C@H]1C(=O)N[C@@H](CO)C(=O)N[C@@H](CO)C(=O)NCC(N)=O [Compound 4] (H-H[Aib]QGTFTSDYSKYLDEKKAK([AEEA-AEEA-γGlu-γGlu-C20 diacid])EFVEWLLSGGPSSG-NH2; N-terminus assumed)
Body Fat (% change vs. vehicle from Day 1) [1, 9]: −26* %
Body Weight (% change vs. vehicle from Day 1) [1, 9]: −15* %
Body Fat (% change vs. vehicle from Day 1) [1, 10]: −69* %
Body Weight (% change vs. vehicle from Day 1) [1, 10]: −39* %
44 hours Glucose AUC (% of Vehicle) ([7]; OGTT 44 hours post-injection, 25 nmol/kg sc): 41* % of Vehicle
78 hours Glucose AUC (% of Vehicle) ([7]; OGTT 78 hours post-injection, 25 nmol/kg sc): 60* % of Vehicle
glucose excursions post an oral glucose challenge ([7]; OGTTs at 44 and 78 hours post injection, 25 nmol/kg): lower glucose excursions post an oral glucose challenge at both time points
Blood glucose (mg/dL) post-injection, Mean ([7]; 2 hours post-injection): 110.2 mg/dL
Blood glucose (mg/dL) post-injection, Mean ([7]; 8 hours post-injection): 91.5 mg/dL
Blood glucose (mg/dL) post-injection, Mean ([7]; 24 hours post-injection): 87.4 mg/dL
Blood glucose (mg/dL) post-injection, Mean ([7]; 48 hours post-injection): 102.9 mg/dL
Blood glucose (mg/dL) post-injection, Mean ([7]; 72 hours post-injection): 115.7 mg/dL
Blood glucose (mg/dL) post-injection, Mean ([7]; 96 hours post-injection): 104.6 mg/dL
HMW species formation by SEC-HPLC ([8]; 1 week at 4° C.): No observed HMW species formation by SEC-HPLC;
visible precipitation or phase separation ([8]; after 1 week storage at 4° C.): No visible precipitation or phase separation observed after 1 week
